How the values were obtained:
[1] = target: LC3B (Homo sapiens (Human), UniProt Q9GZQ8); test: Fluorescence polarization experiment targeting LC3B (GST-LC3B with FITC-labeled peptide); settings: GST-LC3B 180 nM, FITC-labeled peptide 18 nM, 25° C.
[2] = test system: SU-DHL6; test: Inhibition of tumor cell proliferation, CellTiter-Glo, SU-DHL6; type: cell-based; settings: compound concentration 50 μM, 72 hours
How it was run: (§1)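 Activity is graded from survival at 50 μM: + for 60 to under 90%, ++ for over 30 to 60%, +++ for 30% or less. Survival was measured luminescently (CellTiter-Glo) 72 h after dosing, relative to untreated and blank wells; 2000-10000 cells/well, 37° C, 5% CO2.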

[3] = test system: RPMI-8226; test: Inhibition of tumor cell proliferation, CellTiter-Glo, RPMI-8226; type: cell-based; settings: compound concentration 50 μM, 72 hours
How it was run: as §1

[4] = test system: MDA-MB-453; test: Inhibition of tumor cell proliferation, CellTiter-Glo, MDA-MB-453; type: cell-based; settings: compound concentration 50 μM, 72 hours
How it was run: as §1

[5] = test system: A549; test: Inhibition of tumor cell proliferation, CellTiter-Glo, A549; type: cell-based; settings: compound concentration 50 μM, 72 hours
How it was run: as §1

[6] = test system: BxPC-3; test: Inhibition of tumor cell proliferation, CellTiter-Glo, BxPC-3; type: cell-based; settings: compound concentration 50 μM, 72 hours
How it was run: as §1

[7] = test system: K562; test: Inhibition of tumor cell proliferation, CellTiter-Glo, K562; type: cell-based; settings: compound concentration 50 μM, 72 hours
How it was run: as §1

SMILES | IC50 [1] | Inhibitory activity against proliferation (cell survival rate) SU-DHL6 [2] | Inhibitory activity against proliferation (cell survival rate) RPMI-8226 [3] | Inhibitory activity against proliferation (cell survival rate) MDA-MB-453 [4] | Inhibitory activity against proliferation (cell survival rate) A549 [5] | Inhibitory activity against proliferation (cell survival rate) BxPC-3 [6] | Inhibitory activity against proliferation (cell survival rate) K562 [7]
O=C1CCC(N2Cc3c(NC=C4C(=O)CC(c5cc(C(F)(F)F)ccc5Cl)CC4=O)cccc3C2=O)C(=O)N1 (stereo not shown) [Compound 144] | < 3000 nM | +++ (survival rate (%)≤30) | +++ (survival rate (%)≤30) | +++ (survival rate (%)≤30) | + (60≤survival rate (%)<90) | + (60≤survival rate (%)<90) | +++ (survival rate (%)≤30)
O=C1CCC(N2Cc3c(NC=C4C(=O)CC(c5ccc(Cl)cc5F)CC4=O)cccc3C2=O)C(=O)N1 (stereo not shown) [Compound 145] | < 3000 nM | +++ (survival rate (%)≤30) | ++ (30<survival rate (%)≤60) | +++ (survival rate (%)≤30) | +++ (survival rate (%)≤30) | + (60≤survival rate (%)<90) | ++ (30<survival rate (%)≤60)
O=C1CCC(N2Cc3c(NC=C4C(=O)CC(c5cccc(Cl)c5F)CC4=O)cccc3C2=O)C(=O)N1 (stereo not shown) [Compound 146] | < 3000 nM | +++ (survival rate (%)≤30) | +++ (survival rate (%)≤30) | +++ (survival rate (%)≤30) | + (60≤survival rate (%)<90) | + (60≤survival rate (%)<90) | +++ (survival rate (%)≤30)
O=C1CCC(N2Cc3c(NC=C4C(=O)CC(c5c(F)cccc5Cl)CC4=O)cccc3C2=O)C(=O)N1 (stereo not shown) [Compound 147] | < 3000 nM | +++ (survival rate (%)≤30) | +++ (survival rate (%)≤30) | ++ (30<survival rate (%)≤60) | +++ (survival rate (%)≤30) | ++ (30<survival rate (%)≤60) | +++ (survival rate (%)≤30)
O=C1CCC(N2Cc3c(NC=C4C(=O)CC(c5cc(O)ccc5Br)CC4=O)cccc3C2=O)C(=O)N1 (stereo not shown) [Compound 148] | < 3000 nM | +++ (survival rate (%)≤30) | ++ (30<survival rate (%)≤60) | +++ (survival rate (%)≤30) | +++ (survival rate (%)≤30) | + (60≤survival rate (%)<90) | ++ (30<survival rate (%)≤60)
O=C1CCC(N2Cc3c(NC=C4C(=O)CC(c5cc6[nH]ccc6cc5Br)CC4=O)cccc3C2=O)C(=O)N1 (stereo not shown) [Compound 149] | < 3000 nM | +++ (survival rate (%)≤30) | +++ (survival rate (%)≤30) | +++ (survival rate (%)≤30) | + (60≤survival rate (%)<90) | + (60≤survival rate (%)<90) | +++ (survival rate (%)≤30)
O=C1CCC(N2Cc3c(NC=C4C(=O)CC(c5c[nH]c6cccc(Cl)c56)CC4=O)cccc3C2=O)C(=O)N1 (stereo not shown) [Compound 150] | < 3000 nM | +++ (survival rate (%)≤30) | ++ (30<survival rate (%)≤60) | +++ (survival rate (%)≤30) | +++ (survival rate (%)≤30) | + (60≤survival rate (%)<90) | ++ (30<survival rate (%)≤60)
O=C1CCC(N2Cc3c(NC=C4C(=O)CC(c5cc6[nH]ccc6cc5Cl)CC4=O)cccc3C2=O)C(=O)N1 (stereo not shown) [Compound 151] | < 3000 nM | +++ (survival rate (%)≤30) | +++ (survival rate (%)≤30) | +++ (survival rate (%)≤30) | + (60≤survival rate (%)<90) | + (60≤survival rate (%)<90) | +++ (survival rate (%)≤30)
O=C1CCC(N2Cc3c(NC=C4C(=O)CC(c5c(Cl)ccc6[nH]ccc56)CC4=O)cccc3C2=O)C(=O)N1 (stereo not shown) [Compound 152] | < 3000 nM | +++ (survival rate (%)≤30) | +++ (survival rate (%)≤30) | ++ (30<survival rate (%)≤60) | +++ (survival rate (%)≤30) | ++ (30<survival rate (%)≤60) | +++ (survival rate (%)≤30)
COc1ccc(C2CC(=O)C(=CNc3cccc4c3CN(C3CCC(=O)NC3=O)C4=O)C(=O)C2)c(F)c1F (stereo not shown) [Compound 153] | < 3000 nM | +++ (survival rate (%)≤30) | ++ (30<survival rate (%)≤60) | +++ (survival rate (%)≤30) | +++ (survival rate (%)≤30) | + (60≤survival rate (%)<90) | ++ (30<survival rate (%)≤60)
O=C1CCC(N2Cc3c(NC=C4C(=O)CC(c5c(F)c(Cl)cc(Cl)c5Cl)CC4=O)cccc3C2=O)C(=O)N1 (stereo not shown) [Compound 154] | < 3000 nM | +++ (survival rate (%)≤30) | +++ (survival rate (%)≤30) | +++ (survival rate (%)≤30) | + (60≤survival rate (%)<90) | + (60≤survival rate (%)<90) | +++ (survival rate (%)≤30)
O=C1CCC(N2Cc3c(NC=C4C(=O)CC(c5ccccc5N5CCOCC5)CC4=O)cccc3C2=O)C(=O)N1 (stereo not shown) [Compound 155] | < 3000 nM | +++ (survival rate (%)≤30) | ++ (30<survival rate (%)≤60) | +++ (survival rate (%)≤30) | +++ (survival rate (%)≤30) | + (60≤survival rate (%)<90) | ++ (30<survival rate (%)≤60)
CC(=O)Nc1ccccc1C1CC(=O)C(=CNc2cccc3c2CN(C2CCC(=O)NC2=O)C3=O)C(=O)C1 (stereo not shown) [Compound 156] | < 3000 nM | +++ (survival rate (%)≤30) | +++ (survival rate (%)≤30) | +++ (survival rate (%)≤30) | + (60≤survival rate (%)<90) | + (60≤survival rate (%)<90) | +++ (survival rate (%)≤30)

Reference: patent publication US11021457B2, “Class of isoindolone-imide ring-1,3-dione-2-ene compounds, composition and use thereof” (WIGEN BIOMEDICINE TECHNOLOGY (SHANGHAI) CO., LTD., priority 2017, dated 2021)
